In the NIST ThermoML archive (doi:10.1016/j.fluid.2005.09.019):
± gives the expanded uncertainty stated by the source.

Test: wn = mass fraction of the nth substance listed
Settings: Fluid (supercritical or subcritical phases), Other PVT measurement

O=C(OCCC(F)(F)C(F)(F)C(F)(F)C(F)(F)C(F)(F)C(F)(F)F)c1cccc(-c2cccc(C(=O)OCCC(F)(F)C(F)(F)C(F)(F)C(F)(F)C(F)(F)C(F)(F)F)c2)c1 + O=C=O
Settings | mass density [kg/m3]
294.55 K, 5980 kPa, w1 = 0.135 | 744 ± 22
295.05 K, 6070 kPa, w1 = 0.116 | 768 ± 23
295.15 K, 6170 kPa, w1 = 0.016 | 745 ± 22
295.55 K, 6240 kPa, w1 = 0.279 | 976 ± 29
295.95 K, 6280 kPa, w1 = 0.405 | 1054 ± 32
296.45 K, 6310 kPa, w1 = 0.334 | 950 ± 29
296.55 K, 6380 kPa, w1 = 0.206 | 904 ± 27
298.35 K, 6620 kPa, w1 = 0.206 | 900 ± 27
298.75 K, 6590 kPa, w1 = 0.116 | 782 ± 23
299.15 K, 6730 kPa, w1 = 0.405 | 1049 ± 31
299.75 K, 6610 kPa, w1 = 0.273 | 933 ± 28
299.75 K, 6900 kPa, w1 = 0.135 | 737 ± 22
299.95 K, 6860 kPa, w1 = 0.279 | 962 ± 29
300.55 K, 6930 kPa, w1 = 0.334 | 967 ± 29
301.15 K, 6900 kPa, w1 = 0.273 | 932 ± 28
301.95 K, 7070 kPa, w1 = 0.279 | 954 ± 29
302.75 K, 7520 kPa, w1 = 0.016 | 689 ± 21
303.15 K, 7240 kPa, w1 = 0.334 | 957 ± 29
303.35 K, 7310 kPa, w1 = 0.116 | 763 ± 23
303.35 K, 7340 kPa, w1 = 0.135 | 723 ± 22
303.35 K, 7550 kPa, w1 = 0.206 | 880 ± 26
303.45 K, 7240 kPa, w1 = 0.273 | 887 ± 27
304.75 K, 8270 kPa, w1 = 0.279 | 952 ± 29
305.35 K, 7520 kPa, w1 = 0.273 | 827 ± 25
305.85 K, 7660 kPa, w1 = 0.273 | 782 ± 24
305.95 K, 7620 kPa, w1 = 0.016 | 654 ± 20
312.75 K, 10240 kPa, w1 = 0.116 | 752 ± 23
318.45 K, 12270 kPa, w1 = 0.135 | 711 ± 22
320.65 K, 13200 kPa, w1 = 0.279 | 925 ± 28
321.05 K, 12890 kPa, w1 = 0.334 | 931 ± 28
321.05 K, 13270 kPa, w1 = 0.206 | 856 ± 26
322.65 K, 11510 kPa, w1 = 0.016 | 622 ± 19
327.85 K, 14660 kPa, w1 = 0.405 | 1001 ± 30
330.05 K, 15000 kPa, w1 = 0.405 | 999 ± 30
332.45 K, 15960 kPa, w1 = 0.135 | 688 ± 22
338.55 K, 17380 kPa, w1 = 0.116 | 719 ± 26
342.75 K, 18790 kPa, w1 = 0.206 | 816 ± 24
344.35 K, 18760 kPa, w1 = 0.334 | 898 ± 27
345.35 K, 18820 kPa, w1 = 0.405 | 969 ± 29
346.15 K, 19720 kPa, w1 = 0.279 | 879 ± 26
347.75 K, 16790 kPa, w1 = 0.016 | 585 ± 18
348.55 K, 19620 kPa, w1 = 0.135 | 665 ± 26
360.65 K, 22690 kPa, w1 = 0.405 | 949 ± 28
362.85 K, 23000 kPa, w1 = 0.206 | 777 ± 23
363.55 K, 22380 kPa, w1 = 0.116 | 673 ± 22
363.65 K, 23000 kPa, w1 = 0.334 | 862 ± 26
363.75 K, 19380 kPa, w1 = 0.016 | 554 ± 24
368.05 K, 24130 kPa, w1 = 0.279 | 835 ± 25
369.65 K, 24030 kPa, w1 = 0.135 | 639 ± 21

CCCCCCCCOC(=O)c1ccccc1-c1ccccc1C(=O)OCCCCCCCC [dioctyl [1,1'-biphenyl]-2,2'-dicarboxylate] + O=C=O
Settings | mass density [kg/m3]
294.15 K, 29730 kPa, w1 = 0.55 | 926 ± 28
294.75 K, 7070 kPa, w1 = 0.019 | 786 ± 24
294.95 K, 61930 kPa, w1 = 0.374 | 942 ± 28
296.95 K, 55900 kPa, w1 = 0.374 | 931 ± 28
297.05 K, 11550 kPa, w1 = 0.628 | 870 ± 26
298.55 K, 27860 kPa, w1 = 0.55 | 917 ± 28
299.45 K, 9000 kPa, w1 = 0.019 | 784 ± 24
301.15 K, 12660 kPa, w1 = 0.628 | 862 ± 26
303.75 K, 60200 kPa, w1 = 0.274 | 984 ± 30
308.05 K, 69130 kPa, w1 = 0.094 | 953 ± 29
311.55 K, 50510 kPa, w1 = 0.274 | 965 ± 29
312.35 K, 42450 kPa, w1 = 0.374 | 882 ± 26
313.45 K, 26760 kPa, w1 = 0.55 | 896 ± 27
316.95 K, 53240 kPa, w1 = 0.094 | 911 ± 27
317.25 K, 14760 kPa, w1 = 0.019 | 750 ± 23
318.45 K, 16170 kPa, w1 = 0.628 | 848 ± 25
319.45 K, 53170 kPa, w1 = 0.171 | 1122 ± 34
320.25 K, 44070 kPa, w1 = 0.069 | 922 ± 28
322.45 K, 27040 kPa, w1 = 0.55 | 895 ± 27
322.55 K, 49720 kPa, w1 = 0.206 | 1098 ± 33
323.45 K, 44620 kPa, w1 = 0.274 | 934 ± 28
324.25 K, 48000 kPa, w1 = 0.094 | 883 ± 27
327.05 K, 41620 kPa, w1 = 0.069 | 899 ± 27
329.65 K, 48240 kPa, w1 = 0.171 | 1085 ± 33
330.85 K, 28520 kPa, w1 = 0.55 | 882 ± 26
331.25 K, 47070 kPa, w1 = 0.206 | 1071 ± 32
334.65 K, 19620 kPa, w1 = 0.628 | 838 ± 25
334.65 K, 39730 kPa, w1 = 0.374 | 852 ± 26
334.85 K, 19620 kPa, w1 = 0.019 | 716 ± 21
337.75 K, 42720 kPa, w1 = 0.274 | 903 ± 27
339.35 K, 44380 kPa, w1 = 0.094 | 845 ± 26
340.95 K, 45450 kPa, w1 = 0.206 | 1040 ± 31
340.95 K, 46170 kPa, w1 = 0.171 | 1048 ± 32
342.45 K, 40210 kPa, w1 = 0.374 | 857 ± 26
342.75 K, 39580 kPa, w1 = 0.069 | 852 ± 26
351.75 K, 44960 kPa, w1 = 0.206 | 1005 ± 30
352.95 K, 42930 kPa, w1 = 0.274 | 879 ± 27
353.55 K, 23520 kPa, w1 = 0.628 | 828 ± 25
353.85 K, 32040 kPa, w1 = 0.55 | 866 ± 26
353.95 K, 45690 kPa, w1 = 0.171 | 1013 ± 30
354.35 K, 43820 kPa, w1 = 0.094 | 811 ± 25
355.95 K, 41140 kPa, w1 = 0.374 | 830 ± 25
356.55 K, 40450 kPa, w1 = 0.069 | 821 ± 25
359.75 K, 25240 kPa, w1 = 0.019 | 671 ± 20
359.75 K, 45100 kPa, w1 = 0.206 | 994 ± 30
367.25 K, 43820 kPa, w1 = 0.274 | 849 ± 26
369.25 K, 46200 kPa, w1 = 0.171 | 970 ± 29
369.85 K, 45410 kPa, w1 = 0.206 | 955 ± 29
370.25 K, 44510 kPa, w1 = 0.094 | 779 ± 24
371.05 K, 26730 kPa, w1 = 0.628 | 821 ± 25
371.45 K, 42590 kPa, w1 = 0.374 | 816 ± 25
371.55 K, 41450 kPa, w1 = 0.069 | 788 ± 24
371.85 K, 34480 kPa, w1 = 0.55 | 851 ± 26
375.95 K, 27720 kPa, w1 = 0.019 | 638 ± 19
